Data published in patent publication US6673839B1, “Pharmaceutical compositions with antitumour activity” (Universita' Degli Studi di Catania, priority 1998, dated 2004).

Tests used:
Assay type in all cases: cell-based, human
[1] = system: cells from 4 primitive epidermoid carcinomas of the larynx and 1 primitive undifferentiated carcinoma of the nasopharynx; experiment: In vitro short-term chemosensitivity assay (MTT), all five explants; conditions: five explants
Procedure: (§1) The effects of L-aC on cells from 4 primitive epidermoid carcinomas of the larynx and 1 primitive undifferentiated carcinoma of the nasopharynx were tested.
(§2) Tissue fragments from the tumour mass were mechanically dissociated in Hank's solutions adding an antibiotic and an antifungal to obtain a cell monosuspension free of agglomerates. The resulting suspension was centrifuged at 1200 rpm for 5 minutes and the pellet was resuspended in MEM culture medium supplemented with 10% of patient serum, to obtain a concentration of 10^5 cells/ml. Subsequently, 180 μl of the resulting suspension were dispensed in microplate wells and incubated under 5% CO2 atmosphere at 37° C. for 3 days. After that, the antitumor medicaments were added in the amount of 20 μl for each well, at a concentration of 0.1×, 1× and 10× the maximum serum concentrations that can usually be reached in clinical practice. 24 h after the beginning of the exposure to the antitumour medicament, 100 μl of MTT were added, and after 4 h, a further 150 μl of dimethylsulfoxide were added.
(§3) The optical density was evaluated by a Uniscan microspectrophotometer with a […] wavelength filter. Cytotoxicity was evaluated as percentage of the optical density of the treated sample compared with the optical density of the control.
(§4) Bleomycin (BLEC), […] (CDDP), 5-fluoruracil (5-FU), vincristine (VCR), epidoxorubicin (Epi-Dx) and methotrexate (MTX) were tested for comparison purposes.
(§5) L-aC was tested at the following concentrations: 0.2-2-20 mg/ml.

[2] = system: Cells from Nasopharynx Carcinoma Explant; experiment: In vitro short-term chemosensitivity assay (MTT); conditions: Table 1, 24 h
Procedure: as §1, §2, §3, §4, §5
(§6) In vitro short-term chemosensitivity assay (according to Hill and coll.)
(§7) (Cell Vitality Percentage After Exposure to the Antitumoral)—Raw Data
(Cells from Nasopharynx Carcinoma Explant)

[3] = system: Cells from Larynx Carcinoma Explant; experiment: In vitro short-term chemosensitivity assay (MTT)
Procedure: as §1, §2, §3, §4, §5, §6, §7
(Cells from Larynx Carcinoma Explant)

[4] = 0.1x maximum clinical serum concentration (L-aC tested at 0.2-2-20 mg/ml)
[5] = 1x maximum clinical serum concentration
[6] = 10x maximum clinical serum concentration

| Compound | most active medicaments (cases out of 5) [1] | Cell Vitality Percentage After Exposure [2, 4] [%] | Cell Vitality Percentage After Exposure [2, 5] [%] | Cell Vitality Percentage After Exposure [2, 6] [%] | Cell Vitality Percentage After Exposure ([3]; Table 2 explant, 0.1x) [%] | Cell Vitality Percentage After Exposure ([3]; Table 2 explant, 1x) [%] | Cell Vitality Percentage After Exposure ([3]; Table 2 explant, 10x) [%] | Cell Vitality Percentage After Exposure ([3]; Table 3 explant, 0.1x) [%] | Cell Vitality Percentage After Exposure ([3]; Table 3 explant, 1x) [%] | Cell Vitality Percentage After Exposure ([3]; Table 3 explant, 10x) [%] | Cell Vitality Percentage After Exposure ([3]; Table 4 explant, 0.1x) [%] | Cell Vitality Percentage After Exposure ([3]; Table 4 explant, 1x) [%] | Cell Vitality Percentage After Exposure ([3]; Table 4 explant, 10x) [%] | Cell Vitality Percentage After Exposure ([3]; Table 5 explant, 0.1x) [%] | Cell Vitality Percentage After Exposure ([3]; Table 5 explant, 1x) [%] | Cell Vitality Percentage After Exposure ([3]; Table 5 explant, 10x) [%] |
| --- | --- | --- | --- | --- | --- | --- | --- | --- | --- | --- | --- | --- | --- | --- | --- | --- |
| O=c1[nH]cc(F)c(=O)[nH]1 [5-FU, 5-fluoruracil] | 1/5 | 43 | 12 | 5.7 | 53 | 38 | 13 | 52 | 45 | 23 | 40 | 14 | 14 | 55 | 13 | 8.2 |
| N.N.O=C([O-])C1(C(=O)[O-])CCC1.[Pt+2] [CBP, carboplatin] | – | 7.1 | 7 | 6.5 | 78 | 58 | 34 | 88 | 50 | 21 | – | – | – | 72 | 53 | 45 |
| COc1cccc2c1C(=O)c1c(O)c3c(c(O)c1C2=O)C[C@@](O)(C(=O)CO)C[C@@H]3O[C@H]1C[C@H](N)[C@@H](O)[C@H](C)O1 [Epi-Dx, epidoxorubicin] | 2/5 | 14 | 7.8 | 4.8 | 59 | 21 | 7 | 57 | 32 | 16 | 16 | 8 | 8 | 60 | 21 | 18 |
| CN(Cc1cnc2nc(N)nc(N)c2n1)c1ccc(C(=O)N[C@@H](CCC(=O)O)C(=O)O)cc1 [MTX, methotrexate] | 2/5 | 13.5 | 5 | 3.9 | – | – | – | – | – | – | 18 | 4 | 3.1 | – | – | – |
| CC[C@]1(O)C[C@H]2CN(CCc3c([nH]c4ccccc34)[C@@](C(=O)OC)(c3cc4c(cc3OC)N(C=O)[C@H]3[C@@](O)(C(=O)OC)[C@H](OC(C)=O)[C@]5(CC)C=CCN6CC[C@]43[C@@H]65)C2)C1 [VCR, vincristine] | 4/5 | 7.8 | 4.6 | 3.8 | 70 | 45 | 11 | 32 | 19 | 4.8 | 1.9 | 1.3 | 1.3 | 23 | 4.2 | 2 |
| Bleomycin [BLM] | – | – | – | – | 55 | 36 | 17 | 81 | 68 | 34 | 82 | 79 | 62 | 60 | 35 | 31 |
